Source: patent US20240285555A1, “COMPOSITIONS FOR THE TREATMENT OF COPPER DEFICIENCY AND METHODS OF USE” (priority 2018, published 2024)

What was measured:
[1] = system: Ctr1^−/− H9c2 cardiomyocytes; assay: COX1 and SOD1 levels in Ctr1 knockout H9c2 cardiomyocytes (Western blot); type: cell-based, rat; conditions: 5 nM ES
Experimental: FIGS. 4A and 4B illustrates the effects of ES supplementation in increasing copper levels (A) and cytochrome c oxidase subunit, COX1, and superoxide dismutase, SOD1 levels (B) in Ctrl1^−/− H9c2 rat cardiomyocytes. ATP5A is a subunit of mitochondrial ATP synthase and was used as a loading control for the Western blotting experiment.
Mammalian Cell Culture. The human control MCH46 and SCO2 patient fibroblasts as well as the rat H9c2 control and Ctr1^−/− cardiomyocytes were cultured in high glucose Dulbecco's modified Eagle's medium (DMEM) supplemented with 10% fetal bovine serum (Sigma) and 1 mM sodium pyruvate (Life Technologies). The mouse embryonic fibroblasts were cultured in DMEM 10% FBS, 1 mM sodium pyruvate, 1× minimum essential medium non-essential amino acids (MEM NEAA; Life Technologies 11140), 50 μg/mL uridine, and 1× Pen Strep Glutamine (Life Technologies 10378). All cell lines were cultured under 5% CO2 at 37° C. and were treated with indicated concentrations of ES for 3-6 days before harvesting. Whole cell protein was extracted in lysis buffer (BP-115, Boston BioProducts) supplemented with protease inhibitor cocktail (Roche Diagnostics) and the protein concentrations were determined by BCA assay (Thermo Scientific).
Construction of a Ctr1 Knockout Rat H9c2 Cell Line. […]

Yeast coa6Δ cells = assay: Rescue of respiratory growth of yeast coa6Δ cells in YPGE medium (cell density at 600 nm); type: cell-based, Saccharomyces cerevisiae
Experimental: FIG. 1 illustrates determination of the median effective dose (ED50) of elesclomol. Yeast coa6Δ cells were cultured in YPGE medium at 37° C. in the presence of increasing concentrations (0.01 nM to 1 μM) of elesclomol (ES). The cell density was measured spectrophotometrically after 58 hours of growth at 600 nm. The data represent the average±SD from three independent measurements.
FIGS. 3A and 3B illustrates elesclomol rescue of respiratory growth of coa6Δ cells is dependent on copper availability. BY4741 WT, FIG. 3A, and coa6Δ, FIG. 3B, cells were cultured in YPGE medium at 37° C. in the presence of 10 nM ES, 20 μM of the copper chelator bathocuproine disulfonic acid (BCS), or a combination of both. The cell density was measured spectrophotoretrically at the indicated time points at 600 nm. The data are representative of two independent experiments.
Yeast Strains and Culture Conditions. The authenticity of yeast strains was confirmed by PCR as well as by replica plating on dropout plates. Yeast cells were cultured in standard YP growth media including YPD (1% yeast extract, 2% peptone and 2% glucose), YPGal (2% galactose), YPGE (3% glycerol+1% ethanol), or synthetic media (SC glucose). For qualitative growth measurement, 10-fold serial dilutions of overnight cultures were spotted on YPD or YPGE plates and incubated at 30° C. and 37° C. for the indicated period. Growth in liquid media was measured spectrophotometrically at 600 nm.
A number of copper-binding pharmacological agents were tested for their ability to rescue respiratory deficient growth of coa6Δ cells. […] ES rescued the respiratory growth of coa6Δ cells with an ED50 of 0.8 nM (FIG. 1). ES-mediated growth rescue of coa6Δ cells was also observed on solid growth medium containing a non-fermentable carbon. […] To determine the biochemical basis for the observed respiratory rescue of coa6Δ cells, the assembly and activity of CcO-containing mitochondrial respiratory chain supercomplexes was measured by native-polyacrylamide gel electrophoresis blotting and in-gel activity assay, respectively. […]

## CN(NC(=O)CC(=O)NN(C)C(=S)c1ccccc1)C(=S)c1ccccc1 [ES, elesclomol]
[1]
  levels of COX1 and SOD1: restores
Yeast coa6Δ cells; 10 nM ES with 20 μM BCS
  ES mediated rescue in the presence of BCS: diminished
Yeast coa6Δ cells; ES versus copper
  potency relative to copper in rescuing the respiratory growth defect: at least 1000 times
Yeast coa6Δ cells; Saccharomyces cerevisiae, YPGE medium, 37° C., 0.01 nM to 1 μM ES, cell density at 600 nm after 58 hours, read-out: ED50 of rescue of respiratory growth
  EC50: 0.8 nM
